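Following 48 hours of exposure in 96-well plates, responses at five concentrations were used to interpolate endpoints linearly. At the GI50, growth is halved.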 Calls of active or inactive are those of the source. Cut-off read from the data, not from the text of the source: active = GI50 up to about 1.1 µM and inactive = higher.
Assays:
Test in all cases: NCI anticancer screen, dose series, 48 h
SF-268 = system: SF-268
U-251 = system: U-251
HOP-92 = system: HOP-92
OVCAR-3 = system: OVCAR-3
OVCAR-8 = system: OVCAR-8
XF498 = system: XF498
ACHN = system: ACHN
SF-539 = system: SF-539
HT-29 = system: HT-29
M14 = system: M14
SF-295 = system: SF-295
NCI-H522 = system: NCI-H522
SNB-19 = system: SNB-19
SW-620 = system: SW-620
HCT-116 = system: HCT-116
HCT-15 = system: HCT-15
SK-MEL-28 = system: SK-MEL-28
DMS-114 = system: DMS-114
LXFL 529 = system: LXFL 529
NCI-H226 = system: NCI-H226
HOP-62 = system: HOP-62
HCC 2998 = system: HCC 2998
OVCAR-5 = system: OVCAR-5
LOX IMVI = system: LOX IMVI
UACC-257 = system: UACC-257
SK-MEL-2 = system: SK-MEL-2
EKVX = system: EKVX
CAKI-1 = system: CAKI-1
Malme-3M = system: Malme-3M
RPMI-8226 = system: RPMI-8226
SN12C = system: SN12C
CCRF-CEM = system: CCRF-CEM
786-0 = system: 786-0
MOLT-4 = system: MOLT-4
DLD-1 = system: DLD-1
NCI-H460 = system: NCI-H460
HL-60 = system: HL-60
K562 = system: K562
KM-20L2 = system: KM-20L2
DMS-273 = system: DMS-273
A498 = system: A498
KM12 = system: KM12
SNB-75 = system: SNB-75
COLO 205 = system: COLO 205
SNB-78 = system: SNB-78
A549 = system: A549
SR = system: SR
NCI-H23 = system: NCI-H23
RXF 631 = system: RXF 631
TK-10 = system: TK-10
UACC-62 = system: UACC-62
SK-MEL-5 = system: SK-MEL-5
M19-MEL = system: M19-MEL
SK-OV-3 = system: SK-OV-3
UO-31 = system: UO-31
OVCAR-4 = system: OVCAR-4
IGROV-1 = system: IGROV-1
RXF 393 = system: RXF 393

Question: Which results are given for COc1ccc2c(c1)CCc1cnn(C3OC(COC(C)=O)C(OC(C)=O)C(OC(C)=O)C3OC(C)=O)c1-2 (configuration not stated)?
Answer: GI50 (SF-268): > 100 µM (inactive); GI50 (U-251): 22.5 µM (inactive); GI50 (HOP-92): 27.3 µM (inactive); GI50 (OVCAR-3): 23.9 µM (inactive); GI50 (OVCAR-8): > 100 µM (inactive); GI50 (XF498): 22.6 µM (inactive); GI50 (ACHN): > 100 µM (inactive); GI50 (SF-539): > 100 µM (inactive); GI50 (HT-29): 37.2 µM (inactive); GI50 (M14): 56 µM (inactive); GI50 (SF-295): > 100 µM (inactive); GI50 (NCI-H522): 17 µM (inactive); GI50 (SNB-19): > 100 µM (inactive); GI50 (SW-620): 18.4 µM (inactive); GI50 (HCT-116): > 100 µM (inactive); GI50 (HCT-15): 38.2 µM; GI50 (SK-MEL-28): 41.1 µM (inactive); GI50 (DMS-114): 65.6 µM (inactive); GI50 (LXFL 529): 19.1 µM (inactive); GI50 (NCI-H226): 79.6 µM (inactive); GI50 (HOP-62): > 100 µM (inactive); GI50 (HCC 2998): > 100 µM (inactive); GI50 (OVCAR-5): > 100 µM (inactive); GI50 (LOX IMVI): > 100 µM (inactive); GI50 (UACC-257): > 100 µM (inactive); GI50 (SK-MEL-2): > 100 µM (inactive); GI50 (EKVX): 49 µM (inactive); GI50 (CAKI-1): 76.2 µM (inactive); GI50 (Malme-3M): > 10 µM (inactive); GI50 (RPMI-8226): 16.7 µM (inactive); GI50 (SN12C): > 100 µM (inactive); GI50 (CCRF-CEM): 15 µM (inactive); GI50 (786-0): 28.2 µM (inactive); GI50 (MOLT-4): 29.2 µM (inactive); GI50 (DLD-1): 46.8 µM (inactive); GI50 (NCI-H460): > 100 µM (inactive); GI50 (HL-60): > 100 µM (inactive); GI50 (K562): 14.5 µM (inactive); GI50 (KM-20L2): 22.5 µM (inactive); GI50 (DMS-273): > 100 µM (inactive); GI50 (A498): > 100 µM (inactive); GI50 (KM12): > 100 µM (inactive); GI50 (SNB-75): 36.6 µM (inactive); GI50 (COLO 205): 84.7 µM (inactive); GI50 (SNB-78): > 100 µM (inactive); GI50 (A549): > 100 µM (inactive); GI50 (SR): 26.1 µM (inactive); GI50 (NCI-H23): 69 µM (inactive); GI50 (RXF 631): > 100 µM (inactive); GI50 (TK-10): > 100 µM (inactive); GI50 (UACC-62): 66.5 µM (inactive); GI50 (SK-MEL-5): 44.4 µM (inactive); GI50 (M19-MEL): 66.2 µM (inactive)

Question: Cc1cc(OC(=O)c2c(C)cc(OC(=O)c3c(C)cc(O)cc3O)cc2O)cc(O)c1C(=O)O [GYROPHORIC ACID] was tested. Which GI50 (SF-268) did it give?
Answer: > 100 µM (inactive)

Question: And the GI50 (U-251)?
Answer: > 100 µM (inactive)

Question: What about the GI50 (HOP-92) of the same molecule?
Answer: 69.5 µM (inactive)

Question: And the GI50 (OVCAR-3)?
Answer: > 100 µM (inactive)

Question: And the GI50 (OVCAR-8)?
Answer: > 100 µM (inactive)

Question: And the GI50 (XF498)?
Answer: > 100 µM (inactive)

Question: And the GI50 (ACHN)?
Answer: > 100 µM (inactive)

Question: And the GI50 (SF-539)?
Answer: > 100 µM (inactive)

Question: What about the GI50 (HT-29) of the same molecule?
Answer: > 100 µM (inactive)

Question: What about the GI50 (M14) of the same molecule?
Answer: > 100 µM (inactive)

Question: And the GI50 (SF-295)?
Answer: > 100 µM (inactive)

Question: And the GI50 (NCI-H522)?
Answer: > 100 µM (inactive)

Question: What about the GI50 (SNB-19) of the same molecule?
Answer: > 100 µM (inactive)

Question: And the GI50 (SK-OV-3)?
Answer: > 100 µM (inactive)

Question: What about the GI50 (SW-620) of the same molecule?
Answer: > 100 µM (inactive)

Question: And the GI50 (SK-MEL-28)?
Answer: > 100 µM (inactive)

Question: And the GI50 (DMS-114)?
Answer: > 100 µM (inactive)

Question: And the GI50 (LXFL 529)?
Answer: > 100 µM (inactive)

Question: What about the GI50 (HOP-62) of the same molecule?
Answer: > 100 µM (inactive)

Question: And the GI50 (UO-31)?
Answer: 76.4 µM (inactive)

Question: And the GI50 (HCC 2998)?
Answer: > 100 µM (inactive)

Question: And the GI50 (OVCAR-5)?
Answer: > 100 µM (inactive)

Question: What about the GI50 (LOX IMVI) of the same molecule?
Answer: > 100 µM (inactive)

Question: What about the GI50 (UACC-257) of the same molecule?
Answer: > 100 µM (inactive)

Question: What about the GI50 (SK-MEL-2) of the same molecule?
Answer: > 100 µM (inactive)

Question: And the GI50 (EKVX)?
Answer: > 100 µM (inactive)

Question: What about the GI50 (OVCAR-4) of the same molecule?
Answer: > 100 µM (inactive)

Question: And the GI50 (CAKI-1)?
Answer: > 100 µM (inactive)

Question: What about the GI50 (Malme-3M) of the same molecule?
Answer: > 100 µM (inactive)

Question: What about the GI50 (RPMI-8226) of the same molecule?
Answer: > 100 µM (inactive)

Question: What about the GI50 (SN12C) of the same molecule?
Answer: > 100 µM (inactive)

Question: And the GI50 (CCRF-CEM)?
Answer: > 100 µM (inactive)

Question: And the GI50 (IGROV-1)?
Answer: > 100 µM (inactive)

Question: And the GI50 (786-0)?
Answer: > 100 µM (inactive)

Question: What about the GI50 (MOLT-4) of the same molecule?
Answer: > 100 µM (inactive)

Question: And the GI50 (DLD-1)?
Answer: > 100 µM (inactive)

Question: And the GI50 (NCI-H460)?
Answer: > 100 µM (inactive)

Question: And the GI50 (HL-60)?
Answer: > 100 µM (inactive)

Question: What about the GI50 (K562) of the same molecule?
Answer: > 100 µM (inactive)

Question: What about the GI50 (KM-20L2) of the same molecule?
Answer: > 100 µM (inactive)

Question: And the GI50 (DMS-273)?
Answer: > 100 µM (inactive)

Question: What about the GI50 (A498) of the same molecule?
Answer: > 100 µM (inactive)

Question: And the GI50 (KM12)?
Answer: > 100 µM (inactive)

Question: And the GI50 (SNB-75)?
Answer: 91.6 µM (inactive)

Question: And the GI50 (COLO 205)?
Answer: > 100 µM (inactive)

Question: And the GI50 (SNB-78)?
Answer: > 100 µM (inactive)

Question: What about the GI50 (A549) of the same molecule?
Answer: > 100 µM (inactive)

Question: And the GI50 (NCI-H23)?
Answer: > 100 µM (inactive)

Question: What about the GI50 (RXF 631) of the same molecule?
Answer: > 100 µM (inactive)

Question: What about the GI50 (TK-10) of the same molecule?
Answer: > 100 µM (inactive)

Question: And the GI50 (UACC-62)?
Answer: > 100 µM (inactive)

Question: What about the GI50 (SK-MEL-5) of the same molecule?
Answer: > 100 µM (inactive)

Question: What about the GI50 (M19-MEL) of the same molecule?
Answer: > 100 µM (inactive)

Question: What about the GI50 (RXF 393) of the same molecule?
Answer: > 100 µM (inactive)

Reference: ChEMBL document CHEMBL1201862, “PubChem BioAssay data set” (2004)
